Results from patent publication US12180207B2 (ARRAY BIOPHARMA INC., priority 2018, dated 2024).
pIC50: −log10 of the molar value.

Key:
[1] = molecular target: FGFR1 (SEQ ID NO: 1, amino acids 458-765) (Homo sapiens (Human), UniProt P11362); assay: LC/MS FGFR1 kobs assay (covalent protein modification); type: binding; conditions: 500 nM FGFR1, 3 μM compound
Protocol: (§1) The LC/MS FGFR1 and FGFR3 kobs assays were conducted as follows. […] At each time point, the reaction was quenched with 20 μL of 0.4% formic acid. The extent of protein modification by each compound was determined by LC/MS on an Agilent Technologies 6520 Q-TOF LC/MS. Protein signals were then automatically deconvoluted using Agilent Masshunter software. Deconvoluted mass signals were exported to Tibco Spotfire data analysis program for further processing and normalization.
(§2) Data analysis included five steps. First, the signals for the “DMSO Controls” were analyzed to determine the percent of signal associated with unmodified FGFR1 or FGFR3 at each time point. Next, the percent of the signal associated with the covalent modification was determined. Third, the average nonmodified “DMSO Control” signal was used to normalize the modified protein signals at each time point. The percent of unmodified protein was fit to an exponential decay model where A0 is the Percent Unmodified at the start of the reaction, and kobs is the observed rate constant over the time period.

[2] = molecular target: recombinant human FGFR1 catalytic domain (amino acids 308-731) (Homo sapiens (Human), UniProt P11362); assay: FGFR1 enzyme activity assay (LanthaScreen TR-FRET); type: biochemical; conditions: 20 min incubation at 22° C., average of multiple determinations if made, read-out: FGFR1 Enz FRET IC50
Protocol: FGFR1 kinase activity was measured by the Invitrogen LanthaScreen™ Assay technology which directly measures the amount of substrate phosphorylation by Time-resolved fluorescence energy transfer (TR-FRET) using a fluorescently-labeled peptide and Europium-labeled antibody. Briefly, […] His-tagged recombinant human FGFR1 catalytic domain (amino acids 308-731) (Life Technologies Cat. No. PR4660A) was incubated with 100 nM Alexa Fluor® 647-Poly-GT Peptide Substrate (Life Technologies Cat. No. PV5836) and […] ATP along with test compound in a buffer consisting of 250 mM HEPES, 25 mM MgCl2, 0.05% TritonX-100, pH 7.5, and 2% DMSO. […] After a 20 minutes incubation at 22° C., an equal volume of 2 nM LanthaScreen® Eu-PY20 Antibody (Life Technologies Cat. No. PV5691) and 10 mM EDTA was added to quench the kinase reaction and start the detection reaction. After an additional 60 minute incubation at 22° C., the reaction was measured using a PerkinElmer EnVision multimode plate reader via TR-FRET dual wavelength detection, and the percent of control (POC) calculated using a ratiometric emission factor. 100 POC was determined using no test compounds and 0 POC was determined using no enzyme. The POC values were fit to a 4-parameter logistic curve as a function of the concentration of the compound, and the IC50 value is the point where the curve crosses 50 POC.

[3] = molecular target: recombinant human FGFR3 (amino acids R397-T806) (Homo sapiens (Human), UniProt P22607); assay: FGFR3 enzyme activity assay (LanthaScreen TR-FRET); type: biochemical; conditions: 25 μM ATP, 10 min incubation at 22° C., average of multiple determinations if made, read-out: FGFR3 Enz FRET IC50
Protocol: FGFR3 kinase activity was measured by the Invitrogen LanthaScreen™ Assay technology which directly measures the amount of substrate phosphorylation by TR-FRET using a fluorescently-labeled peptide and Europium-labeled antibody. Briefly, […] N-terminal GST-HIS6 fusion protein with a 3C cleavage site recombinant human FGFR3 (amino acids R397-T806) (ProQinase Cat. No. 1068-0000-1) was incubated with 100 nM Alexa Fluor® 647-Poly-GT Peptide Substrate (Life Technologies Cat. No. PV5836) and 25 μM ATP along with test compound in a buffer consisting of 250 mM HEPES, 25 mM MgCl2, 0.05% TritonX-100, pH 7.5, and 2% DMSO. […] After a 10 minute incubation at 22° C., an equal volume of 2 nM LanthaScreen® Eu-PY20 Antibody (Life Technologies Cat. No. PV5691) and 10 mM EDTA were added to quench the kinase reaction and start the detection reaction. After an additional 60 minute incubation at 22° C., the reaction was measured using a PerkinElmer EnVision multimode plate reader via TR-FRET dual wavelength detection, and the percent of control (POC) calculated using a ratiometric emission factor. 100 POC was determined using no test compounds and 0 POC was determined using no enzyme. The POC values were fit to a 4-parameter logistic curve as a function of the concentration of the compound, and the IC50 value is the point where the curve crosses 50 POC.

[4] = molecular target: FGFR3 (SEQ ID NO: 5, amino acids 449-759) (Homo sapiens (Human), UniProt P22607); assay: LC/MS FGFR3 kobs assay (covalent protein modification); type: binding; conditions: 500 nM FGFR3, 3 μM compound
Protocol: as §1, §2
Table EC contains kobs values for compounds tested in these assays, presented as the average of multiple determinations if multiple determinations were made. ND=not determined.

[5] = molecular target: recombinant human FGFR2 cytoplasmic domain (amino acids 403-822) (Homo sapiens (Human), UniProt P21802); assay: FGFR2 enzyme activity assay (LanthaScreen TR-FRET); type: biochemical; conditions: 15 μM ATP, 20 min incubation at 22° C., average of multiple determinations if made, read-out: FGFR2 Enz FRET IC50
Protocol: FGFR2 kinase activity was measured by the Invitrogen LanthaScreen™ Assay technology which directly measures the amount of substrate phosphorylation by TR-FRET using a fluorescently-labeled peptide and Europium-labeled antibody. Briefly, […] His-tagged recombinant human FGFR2 cytoplasmic domain (amino acids 403-822) (Life Technologies Cat. No. PR5332A) was incubated with 100 nM Alexa Fluor® 647-Poly-GT Peptide Substrate (Life Technologies Cat. No. PV5836) and 15 μM ATP along with test compound in a buffer consisting of 250 mM HEPES, 25 mM MgCl2, 0.05% TritonX-100, pH 7.5, and 2% DMSO. […] After a 20 minute incubation at 22° C., an equal volume of 2 nM LanthaScreen® Eu-PY20 Antibody (Life Technologies Cat. No. PV5691) and 10 mM EDTA were added to quench the kinase reaction and start the detection reaction. After an additional 60 minute incubation at 22° C., the reaction was measured using a PerkinElmer EnVision multimode plate reader via TR-FRET dual wavelength detection, and the percent of control (POC) calculated using a ratiometric emission factor. 100 POC was determined using no test compounds and 0 POC was determined using no enzyme. The POC values were fit to a 4-parameter logistic curve as a function of the concentration of the compound, and the IC50 value is the point where the curve crosses 50 POC.

[6] = molecular target: dephosphorylated FGFR1 (SEQ ID NO: 1, amino acids 458 to 765) (Homo sapiens (Human), UniProt P11362); assay: FGFR enzyme binding assay (HTRF tracer displacement), FGFR1; conditions: 5 nM dephosphorylated FGFR1, average of multiple determinations if made
Protocol: (§3) The potency of compounds inhibiting human isoforms of FGFR kinase was determined using Life Technologies' Homogeneous Time Resolved Fluorescence (HTRF)-based binding assay technology. […] After a 60 minute incubation at 22° C., the extent of tracer displacement was determined using a PerkinElmer EnVision multimode plate reader via HTRF dual wavelength detection, and the percent of control (POC) was calculated using a ratiometric emission factor. One hundred POC was determined using no test compound, and 0 POC was determined in the presence of 1 μM of an appropriate control inhibitor.

[7] = molecular target: phosphorylated FGFR3 (SEQ ID NO: 5, amino acids 449 to 759) (Homo sapiens (Human), UniProt P22607); assay: FGFR enzyme binding assay (HTRF tracer displacement), FGFR3; conditions: 5 nM phosphorylated FGFR3, average of multiple determinations if made
Protocol: as §3

recombinant human FGFR2 cytoplasmic domain (amino acids 403-822), sequence (P21802 402-821): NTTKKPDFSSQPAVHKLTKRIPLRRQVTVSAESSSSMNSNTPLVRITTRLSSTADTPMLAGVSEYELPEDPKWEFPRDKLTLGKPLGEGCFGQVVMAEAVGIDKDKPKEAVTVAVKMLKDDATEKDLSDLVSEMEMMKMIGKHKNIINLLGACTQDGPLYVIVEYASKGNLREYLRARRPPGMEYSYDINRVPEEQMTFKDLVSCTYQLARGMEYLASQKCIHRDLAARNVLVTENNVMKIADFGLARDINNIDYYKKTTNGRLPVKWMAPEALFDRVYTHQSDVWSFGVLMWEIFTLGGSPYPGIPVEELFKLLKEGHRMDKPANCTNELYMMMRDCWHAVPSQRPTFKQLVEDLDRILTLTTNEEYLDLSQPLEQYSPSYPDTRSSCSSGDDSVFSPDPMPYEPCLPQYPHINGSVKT
FGFR1 (SEQ ID NO: 1, amino acids 458-765), sequence (P11362 458-765): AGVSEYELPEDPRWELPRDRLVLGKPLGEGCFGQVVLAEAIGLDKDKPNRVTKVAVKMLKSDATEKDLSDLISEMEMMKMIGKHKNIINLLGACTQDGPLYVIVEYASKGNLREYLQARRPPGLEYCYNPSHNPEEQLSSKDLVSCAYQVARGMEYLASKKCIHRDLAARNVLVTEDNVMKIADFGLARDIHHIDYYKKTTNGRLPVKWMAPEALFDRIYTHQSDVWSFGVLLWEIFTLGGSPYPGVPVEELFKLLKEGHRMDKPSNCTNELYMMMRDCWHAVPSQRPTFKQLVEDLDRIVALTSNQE
dephosphorylated FGFR1 (SEQ ID NO: 1, amino acids 458 to 765), sequence (P11362 458-765): as above
recombinant human FGFR1 catalytic domain (amino acids 308-731), sequence (P11362 other isoform, or with tags, fused parts or gaps): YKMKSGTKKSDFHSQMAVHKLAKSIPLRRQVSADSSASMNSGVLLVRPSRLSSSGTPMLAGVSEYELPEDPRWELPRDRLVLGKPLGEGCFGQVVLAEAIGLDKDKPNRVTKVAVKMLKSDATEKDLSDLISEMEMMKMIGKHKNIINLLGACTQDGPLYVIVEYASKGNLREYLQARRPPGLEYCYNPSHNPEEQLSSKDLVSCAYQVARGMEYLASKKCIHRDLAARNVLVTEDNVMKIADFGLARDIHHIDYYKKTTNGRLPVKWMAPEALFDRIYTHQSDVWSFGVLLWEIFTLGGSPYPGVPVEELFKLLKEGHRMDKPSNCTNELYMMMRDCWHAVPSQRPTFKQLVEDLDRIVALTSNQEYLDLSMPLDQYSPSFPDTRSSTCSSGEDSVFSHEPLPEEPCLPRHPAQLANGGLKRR
recombinant human FGFR3 (amino acids R397-T806), sequence (P22607 397-806): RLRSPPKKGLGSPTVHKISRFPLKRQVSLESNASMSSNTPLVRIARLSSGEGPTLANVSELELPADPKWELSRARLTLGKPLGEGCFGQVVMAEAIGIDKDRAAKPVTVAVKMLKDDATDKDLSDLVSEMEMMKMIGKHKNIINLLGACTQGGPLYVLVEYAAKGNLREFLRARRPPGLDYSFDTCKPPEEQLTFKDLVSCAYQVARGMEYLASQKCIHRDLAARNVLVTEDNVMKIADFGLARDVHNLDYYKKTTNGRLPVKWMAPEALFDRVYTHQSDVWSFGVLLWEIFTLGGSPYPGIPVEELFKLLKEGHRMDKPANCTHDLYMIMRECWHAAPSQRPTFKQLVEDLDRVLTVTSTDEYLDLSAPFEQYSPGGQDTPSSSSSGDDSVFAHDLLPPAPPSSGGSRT
phosphorylated FGFR3 (SEQ ID NO: 5, amino acids 449 to 759), sequence (P22607 449-759): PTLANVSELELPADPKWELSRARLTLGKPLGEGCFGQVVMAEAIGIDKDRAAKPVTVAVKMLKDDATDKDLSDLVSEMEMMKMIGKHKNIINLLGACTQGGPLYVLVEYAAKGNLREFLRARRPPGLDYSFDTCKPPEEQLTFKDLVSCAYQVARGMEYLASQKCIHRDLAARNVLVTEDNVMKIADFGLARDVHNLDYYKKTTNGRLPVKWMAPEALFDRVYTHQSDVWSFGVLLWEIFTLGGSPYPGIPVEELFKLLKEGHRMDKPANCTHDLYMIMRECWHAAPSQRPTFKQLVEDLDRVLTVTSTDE
FGFR3 (SEQ ID NO: 5, amino acids 449-759), sequence (P22607 449-759): as above

SMILES | FGFR1 Enz kobs [1] | pIC50 [2] | pIC50 [3] | FGFR3 Enz kobs [4] | pIC50 [5] | pIC50 [6] | pIC50 [7]
C=CC(=O)N1CCC[C@@H](C(=O)N2CCC(n3cc(-c4cc(OC)c5c(C#N)cnn5c4)cn3)CC2)C1 [Example 17, (R)-6-(1-(1-(1-acryloylpiperidine-3-carbonyl)piperidin-4-yl)-1H-pyrazol-4-yl)-4-methoxypyrazolo[1,5-a]pyridine-3-carbonitrile] | 0.00041 min⁻¹ | 7.77 | 8.22 | 0.00163 min⁻¹ | 8.15 | 7.35 | 8.10
C=CC(=O)N1CCN(c2cccc(-n3cc(-c4cc(OC)c5c(C#N)cnn5c4)cn3)c2)CC1 [Example 27, 6-(1-(3-(4-acryloylpiperazin-1-yl)phenyl)-1H-pyrazol-4-yl)-4-methoxypyrazolo[1,5-a]pyridine-3-carbonitrile] | 0.00017 min⁻¹ | 7.20 | 7.68 | 0.00184 min⁻¹ | 7.89 | 6.72 | 7.36
C=CC(=O)N1CC2(CC(C(=O)N3CCC(n4cc(-c5cc(OC)c6c(C#N)cnn6c5)cn4)CC3)C2)C1 [Example 47, 6-(1-(1-(2-acryloyl-2-azaspiro[3.3]heptane-6-carbonyl)piperidin-4-yl)-1H-pyrazol-4-yl)-4-methoxypyrazolo[1,5-a]pyridine-3-carbonitrile] | 0.00093 min⁻¹ | 7.46 | 8.40 | 0.00501 min⁻¹ | 8.30 | 6.75 | 7.66
C=CC(=O)N1CCC2(CC1)CC(C(=O)N1CCC(n3cc(-c4cc(OC)c5c(C#N)cnn5c4)cn3)CC1)C2 [Example 48, 6-(1-(1-(7-acryloyl-7-azaspiro[3.5]nonane-2-carbonyl)piperidin-4-yl)-1H-pyrazol-4-yl)-4-methoxypyrazolo[1,5-a]pyridine-3-carbonitrile] | 0.00071 min⁻¹ | 7.96 | 8.15 | 0.00114 min⁻¹ | 8.52 | 6.96 | 7.60
C=CC(=O)N1CC[C@H](C(=O)N2CC[C@@H](n3cc(-c4cc(OC)c5c(C#N)cnn5c4)cn3)C2)C1 [Example 57, 6-(1-((R)-1-((S)-1-acryloylpyrrolidine-3-carbonyl)pyrrolidin-3-yl)-1H-pyrazol-4-yl)-4-methoxypyrazolo[1,5-a]pyridine-3-carbonitrile] | 0.00051 min⁻¹ | 7.47 | 8.22 | 0.0015 min⁻¹ | 8.15 | 6.67 | 7.60
C=CC(=O)N1CC[C@@H](C(=O)N2CC[C@@H](n3cc(-c4cc(OC)c5c(C#N)cnn5c4)cn3)C2)C1 [Example 58, 6-(1-((R)-1-((R)-1-acryloylpyrrolidine-3-carbonyl)pyrrolidin-3-yl)-1H-pyrazol-4-yl)-4-methoxypyrazolo[1,5-a]pyridine-3-carbonitrile] | 0.00058 min⁻¹ | 7.26 | 8.10 | 0.00158 min⁻¹ | 8.10 | 6.54 | 7.39
C=CC(=O)N1CCC[C@H](C(=O)N2CC[C@H](n3cc(-c4cc(OC)c5c(C#N)cnn5c4)cn3)C2)C1 [Example 63, 6-(1-((S)-1-((S)-1-acryloylpiperidine-3-carbonyl)pyrrolidin-3-yl)-1H-pyrazol-4-yl)-4-methoxypyrazolo[1,5-a]pyridine-3-carbonitrile] | 0.0005 min⁻¹ | 7.59 | 8.52 | 0.0013 min⁻¹ | 8.15 | 6.70 | 7.21
